Results: US11046699B2, “Pyrazolo-pyrimidin-amino-cycloalkyl compounds and their therapeutic uses” (RAPT THERAPEUTICS, INC., priority 2018, dated 2021)

molecular target: GCN2 (Homo sapiens, UniProt Q9P2K8); assay: GCN2 enzymatic endpoint assay: phosphorylation of GFP-eIF2α measured by TR-FRET (Lanthascreen); type: biochemical; settings: GCN2 biochemical IC50; 4 nM GCN2, 2 μM ATP, 80 nM GFP-eIF2α, 90 min RT; read-out: GCN2 activity
Method: The Enzymatic assay was run as an endpoint assay to quantify the activity of the serine/threonine GCN2 kinase by way of measuring phosphorylation of its natural substrate, eiF2α.
The enzymatic reaction was initiated by incubating with 2 μM ATP and 80 nM of GFP labeled eiF2a substrate at room temperature and then stopped after 90 minutes with EDTA. The amount of phosphorylated eIF2α is determined by TR-FRET (Lanthascreen). A terbium labeled antibody associates with the phosphorylated substrate resulting in an increased TR-FRET value. Activity was calculated as the ratio of the acceptor (fluorescein) signal at 520 nm wavelength to the donor (terbium) signal 495 nm. The amount of antibody that is bound to the tracer is directly proportional to the amount of phosphorylated substrate present, and in this manner, kinase activity can be detected and measured by an increase in the TR-FRET value.
Compound addition by D300
5 μL enzyme solution in assay buffer
5 μL substrate/ATP mixture in assay buffer
5 μL stop/detection mix in antibody dilution buffer

Sequence of GCN2 (Q9P2K8 whole entry): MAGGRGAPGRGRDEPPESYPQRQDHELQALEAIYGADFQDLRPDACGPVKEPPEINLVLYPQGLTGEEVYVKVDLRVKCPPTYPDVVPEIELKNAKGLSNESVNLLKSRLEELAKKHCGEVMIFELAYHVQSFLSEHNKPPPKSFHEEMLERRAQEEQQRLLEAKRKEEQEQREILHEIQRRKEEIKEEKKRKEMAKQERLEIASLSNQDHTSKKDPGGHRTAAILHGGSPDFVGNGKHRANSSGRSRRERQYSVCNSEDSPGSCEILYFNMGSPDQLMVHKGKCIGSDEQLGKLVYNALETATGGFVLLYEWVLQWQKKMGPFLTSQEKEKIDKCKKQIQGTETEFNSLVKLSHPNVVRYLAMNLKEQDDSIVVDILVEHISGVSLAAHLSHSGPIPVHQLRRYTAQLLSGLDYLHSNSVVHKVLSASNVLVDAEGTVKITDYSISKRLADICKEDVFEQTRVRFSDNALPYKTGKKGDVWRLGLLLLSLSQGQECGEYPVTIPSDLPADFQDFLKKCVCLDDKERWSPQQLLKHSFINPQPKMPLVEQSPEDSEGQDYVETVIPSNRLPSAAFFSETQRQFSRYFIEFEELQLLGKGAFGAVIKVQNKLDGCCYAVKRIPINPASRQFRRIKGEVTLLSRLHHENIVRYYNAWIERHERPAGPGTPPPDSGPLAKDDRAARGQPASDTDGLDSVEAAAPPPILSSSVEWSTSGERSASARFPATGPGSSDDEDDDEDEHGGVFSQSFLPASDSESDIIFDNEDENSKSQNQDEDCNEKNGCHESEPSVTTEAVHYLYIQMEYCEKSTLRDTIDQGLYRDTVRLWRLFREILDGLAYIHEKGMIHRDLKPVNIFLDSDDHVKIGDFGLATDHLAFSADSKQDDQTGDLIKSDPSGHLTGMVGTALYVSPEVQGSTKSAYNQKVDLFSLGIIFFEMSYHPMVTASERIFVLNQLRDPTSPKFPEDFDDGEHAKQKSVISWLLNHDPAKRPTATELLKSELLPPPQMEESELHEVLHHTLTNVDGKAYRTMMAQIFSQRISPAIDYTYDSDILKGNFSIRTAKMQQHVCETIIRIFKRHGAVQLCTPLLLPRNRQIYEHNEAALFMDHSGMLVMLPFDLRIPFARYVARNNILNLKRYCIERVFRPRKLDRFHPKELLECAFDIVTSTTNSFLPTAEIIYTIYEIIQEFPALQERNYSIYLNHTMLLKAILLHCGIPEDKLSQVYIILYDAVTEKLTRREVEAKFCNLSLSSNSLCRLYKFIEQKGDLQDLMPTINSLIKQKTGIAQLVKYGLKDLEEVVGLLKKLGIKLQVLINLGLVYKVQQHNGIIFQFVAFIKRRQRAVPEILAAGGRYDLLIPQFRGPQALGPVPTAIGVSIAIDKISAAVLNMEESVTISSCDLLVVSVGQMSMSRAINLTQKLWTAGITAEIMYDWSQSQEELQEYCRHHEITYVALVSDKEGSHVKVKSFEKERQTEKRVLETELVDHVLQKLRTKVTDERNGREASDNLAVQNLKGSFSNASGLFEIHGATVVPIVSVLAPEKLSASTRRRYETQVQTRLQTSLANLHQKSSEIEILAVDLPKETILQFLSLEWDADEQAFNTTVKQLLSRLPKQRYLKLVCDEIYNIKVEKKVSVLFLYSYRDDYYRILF

| IC50 | SMILES |
| --- | --- |
| 25 to 200 nM | CNC(=O)C1(C)CC[C@@H](Nc2ncc3c(Br)nn(-c4cc(Cl)cc(CO)c4)c3n2)C1 (mixture of isomers) [Example 17, (3R)-3-((3-bromo-1-(3-chloro-5-(hydroxymethyl)phenyl)-1H-pyrazolo[3,4-d]pyrimidin-6-yl)amino)-N,1-dimethylcyclopentane-1-carboxamide] |
| 25 to 200 nM | Brc1nn(-c2ccc3ncccc3c2)c2nc(N[C@@H]3CCC(N4CCOCC4)C3)ncc12 (mixture of isomers) [Example 7, 3-bromo-N-(3-morpholinocyclopentyl)-1-(quinolin-6-yl)-1H-pyrazolo[3,4-d]pyrimidin-6-amine] |
| 200 to 500 nM | CS(=O)(=O)N[C@@H]1CCC(Nc2ncc3c(Br)nn(-c4ccc5ncccc5c4)c3n2)C1 (mixture of isomers) [Example 15, N-(trans-3-((3-bromo-1-(quinolin-6-yl)-1H-pyrazolo[3,4-d]pyrimidin-6-yl)amino)cyclopentyl)methanesulfonamide] |
| 25 to 200 nM | CNC(=O)[C@]1(C)CC[C@@H](Nc2ncc3c(Br)nn(-c4ccc5nccnc5c4)c3n2)C1 (single isomer, unassigned) [Example 11] |
| 25 to 200 nM | CNS(=O)(=O)[C@@H]1CC[C@@H](Nc2ncc3c(Br)nn(-c4ccc5ncccc5c4)c3n2)C1 (single isomer, unassigned) [Example 16] |
| 25 to 200 nM | CNC(=O)[C@]1(C)CC[C@@H](Nc2ncc3c(Br)nn(-c4ccc5ncccc5c4)c3n2)C1 (single isomer, unassigned) [Example 18] |
| 25 to 200 nM | CNC(=O)[C@]1(CC#N)CC[C@@H](Nc2ncc3c(Br)nn(-c4cc(F)c5ncccc5c4)c3n2)C1 (single isomer, unassigned) [Example 19] |
| < 25 nM | CNC(=O)[C@]1(C)CC[C@@H](Nc2ncc3c(Br)nn(-c4cc(C#N)c5ncccc5c4)c3n2)C1 (single isomer, unassigned) [Example 23] |

same assay, conditions: tested as described in Example 77; compound and/or hydrochloride, dihydrochloride or trifluoroacetic acid salt; read-out: IC 50 Activity

| SMILES | IC50 |
| --- | --- |
| CNC(=O)CC1CC(Nc2ncc3c(Br)nn(-c4ccc(-c5nnc(C)s5)c(CCC#N)c4)c3n2)C1 (centres unmarked) | 25 to 200 nM |
| CNC(=O)CC1CC(Nc2ncc3c(Br)nn(-c4ccc(-c5nnc(C)s5)cc4)c3n2)C1 (centres unmarked) | 25 to 200 nM |
| Cc1nnc(-c2ccc(-n3nc(Br)c4cnc(N[C@@H]5CCC(C)(CP(C)(C)=O)C5)nc43)cc2CCC#N)s1 (some centres unmarked) | 25 to 200 nM |
| Cc1nnc(-c2ccc(-n3nc(Br)c4cnc(N[C@@H]5CC[C@@](C)(C(=O)N6CCOCC6)C5)nc43)cc2CCC#N)s1 | 25 to 200 nM |
| Cc1nnc(-c2ccc(-n3nc(Br)c4cnc(N[C@@H]5CC[C@@](C)(C(=O)N6CCNCC6)C5)nc43)cc2CCC#N)s1 | 25 to 200 nM |
| Cc1nnc(-c2ccc(-n3nc(Br)c4cnc(N[C@@H]5CC[C@@](C)(N)C5)nc43)cc2CCC#N)s1 | 25 to 200 nM |
| CNC(=O)CCC1(C#N)CC[C@@H](Nc2ncc3c(Br)nn(-c4ccc(-c5nnc(C)s5)cc4)c3n2)C1 (some centres unmarked) | < 25 nM |
| CNC(=O)[C@]1(C)CC[C@@H](Nc2ncc3c(Br)nn(-c4ccc5nc(N6CCN(C(C)=O)CC6)ncc5c4)c3n2)C1 | 25 to 200 nM |
| CNC(=O)[C@]1(C)CC[C@@H](Nc2ncc3c(Br)nn(-c4ccc5ncn(CCN)c(=O)c5c4)c3n2)C1 | 25 to 200 nM |
| CNC(=O)[C@]1(C)CC[C@@H](Nc2ncc3c(Br)nn(-c4ccc5ncn(CCCN)c(=O)c5c4)c3n2)C1 | 25 to 200 nM |
| CC[C@@H](N)c1cc(Cl)cc(-n2nc(Br)c3cnc(N[C@@H]4CC[C@@](C)(C(=O)NC)C4)nc32)c1 | < 25 nM |
| C[C@H](N)c1cc(Cl)cc(-n2nc(Br)c3cnc(N[C@@H]4CC[C@@](C)(C#N)C4)nc32)c1 | 25 to 200 nM |
| CC[C@H](N)c1cc(Cl)cc(-n2nc(Br)c3cnc(N[C@@H]4CC[C@@](C)(C(=O)NC)C4)nc32)c1 | 25 to 200 nM |
| CNC(=O)[C@]1(C)CC[C@@H](Nc2ncc3c(Br)nn(-c4cc(Br)cc(CN)c4)c3n2)C1 | 25 to 200 nM |
| CNC(=O)[C@]1(C)CC[C@@H](Nc2ncc3c(Br)nn(-c4ccc5c(c4)C(N)CO5)c3n2)C1 (some centres unmarked) | 25 to 200 nM |
| C[C@@]1(O)CC[C@@H](Nc2ncc3c(Br)nn(-c4cc(CCN)c5ncccc5c4)c3n2)C1 | < 25 nM |
| CNC(=O)[C@]1(C)CC[C@@H](Nc2ncc3c(Br)nn(-c4ccc5c(c4)c(=O)n(C)c(=O)n5C)c3n2)C1 | < 25 nM |
| CNC(=O)[C@]1(C)CC[C@@H](Nc2ncc3c(Br)nn(-c4ccc5nc(N6CCNCC6)ncc5c4)c3n2)C1 | < 25 nM |
| CNC(=O)[C@]1(C)CC[C@@H](Nc2ncc3c(Br)nn(-c4ccc5nc(N6CCCC6)ncc5c4)c3n2)C1 | 25 to 200 nM |
| CNC(=O)[C@]1(C)CC[C@@H](Nc2ncc3c(Br)nn(-c4ccc5ncn(CCN6C(=O)c7ccccc7C6=O)c(=O)c5c4)c3n2)C1 | 25 to 200 nM |
| CNC(=O)[C@]1(C#N)CC[C@@H](Nc2ncc3c(Br)nn(-c4ccc(-c5nnc(C)s5)c(CCC#N)c4)c3n2)C1 | 25 to 200 nM |
| CNC(=O)[C@]1(C)CC[C@@H](Nc2ncc3c(Br)nn(-c4ccc5ncn(CCO)c(=O)c5c4)c3n2)C1 | 25 to 200 nM |
| CNC(=O)[C@]1(C)CC[C@@H](Nc2ncc3c(Br)nn(-c4cc(Br)cc(C(C)O)c4)c3n2)C1 (some centres unmarked) | 25 to 200 nM |
| CNC(=O)[C@]1(C)CC[C@@H](Nc2ncc3c(Br)nn(-c4cc(Cl)cc(C(C)O)c4)c3n2)C1 (some centres unmarked) | < 25 nM |
| CNC(=O)[C@]1(C)CC[C@@H](Nc2ncc3c(Br)nn(-c4cc(Cl)cc([C@H](C)N(C)C)c4)c3n2)C1 | 25 to 200 nM |
| CNC(=O)[C@]1(C)CC[C@@H](Nc2ncc3c(Br)nn(-c4ccc5c(=O)n(C)cnc5c4)c3n2)C1 | 25 to 200 nM |
| CNC(=O)[C@]1(C)CC[C@@H](Nc2ncc3c(Br)nn(-c4ccc(-c5nncs5)cc4)c3n2)C1 | 25 to 200 nM |

| SMILES | IC50 |
| --- | --- |
| CNC(=O)[C@]1(C)CC[C@@H](Nc2ncc3c(Br)nn(-c4ccc(-c5nnc(CCOC)s5)cc4)c3n2)C1 | 25 to 200 nM |
| CNC(=O)[C@]1(C#N)CC[C@@H](Nc2ncc3c(Br)nn(-c4ccc(-c5nnc(C)s5)cc4)c3n2)C1 | 25 to 200 nM |
| Cc1nnc(-c2ccc(-n3nc(Br)c4cnc(N[C@@H]5CC[C@@](C)(C#N)C5)nc43)cc2)s1 | 25 to 200 nM |
| CNC(=O)[C@]1(C)CC[C@@H](Nc2ncc3c(Br)nn(-c4ccc5nc[nH]c(=O)c5c4)c3n2)C1 | 25 to 200 nM |
| CN[C@]1(C)CC[C@@H](Nc2ncc3c(Br)nn(-c4ccc(-c5nnc(C)s5)cc4)c3n2)C1 | 25 to 200 nM |
| Cc1nnc(-c2ccc(-n3nc(Br)c4cnc(N[C@@H]5CC[C@@](C)(N)C5)nc43)cc2)s1 | 25 to 200 nM |
| Cc1nnc(-c2ccc(-n3nc(Br)c4cnc(N[C@@H]5CC[C@@](C)(N(C)C)C5)nc43)cc2)s1 | 25 to 200 nM |
| CNC(=O)[C@@]1(CC(F)(F)F)CC[C@@H](Nc2ncc3c(Br)nn(-c4ccc(-c5nnc(C)s5)cc4)c3n2)C1 | 25 to 200 nM |
| CNS(=O)(=O)C1CC[C@@H](Nc2ncc3c(Br)nn(-c4cc(Cl)cc([C@H](C)N)c4)c3n2)C1 (some centres unmarked) | 25 to 200 nM |
| CC1(O)CC[C@@H](Nc2ncc3c(Br)nn(-c4cc(CCN)c5ncccc5c4)c3n2)C1 (some centres unmarked) | 25 to 200 nM |
| CNc1ncc2cc(-n3nc(Br)c4cnc(N[C@@H]5CCC(C)(O)C5)nc43)ccc2n1 (some centres unmarked) | 25 to 200 nM |
| CNC(=O)C1(CC(F)(F)F)CC[C@@H](Nc2ncc3c(Br)nn(-c4ccc(-c5nnc(C)s5)c(CCC#N)c4)c3n2)C1 (some centres unmarked) | 25 to 200 nM |
| C[C@H](N)c1cc(Cl)cc(-n2nc(Br)c3cnc(N[C@@H]4CCC5(CC(=O)N(C)C5=O)C4)nc32)c1 (some centres unmarked) | 25 to 200 nM |
| Cc1nnc(-c2ccc(-n3nc(Br)c4cnc(N[C@@H]5CCC6(CC(=O)N(C)C6=O)C5)nc43)cc2)s1 (some centres unmarked) | < 25 nM |
| C[C@H](N)c1cc(Cl)cc(-n2nc(Br)c3cnc(N[C@@H]4CC[C@@](C)(C(=O)N5CCP(C)(=O)CC5)C4)nc32)c1 | 25 to 200 nM |
| C[C@@]1(CO)CC[C@@H](Nc2ncc3c(Br)nn(-c4cc(CCN)c5ncccc5c4)c3n2)C1 | 25 to 200 nM |
| Cc1nnc(-c2ccc(-n3nc(Br)c4cnc(N[C@@H]5CC[C@@](C)(C(=O)N6CCP(C)(=O)CC6)C5)nc43)cc2)s1 | 25 to 200 nM |
| COC(=O)N1CC[C@@H](Nc2ncc3c(Br)nn(-c4ccc(-c5nnc(C)s5)cc4)c3n2)C1 | 25 to 200 nM |
| CC1N(C)C(=O)CN1C(=O)[C@@H]1CC[C@@H](Nc2ncc3c(Br)nn(-c4cc(F)c5ncccc5c4)c3n2)C1 (mixture of isomers) | < 25 nM |
| CNC(=O)C1CCN(C(=O)[C@@H]2CC[C@@H](Nc3ncc4c(Br)nn(-c5cc(F)c6ncccc6c5)c4n3)C2)C1 (mixture of isomers) | 25 to 200 nM |
| O=C(O)C1CN(C(=O)[C@@H]2CC[C@@H](Nc3ncc4c(Br)nn(-c5ccc6ncccc6c5)c4n3)C2)CCN1 (mixture of isomers) | < 25 nM |
| COC(=O)C1CN(C(=O)[C@@H]2CC[C@@H](Nc3ncc4c(Br)nn(-c5ccc6ncccc6c5)c4n3)C2)CCN1 (mixture of isomers) | 25 to 200 nM |
| N#Cc1cc(-n2nc(Br)c3cnc(N[C@@H]4CC[C@@H](C(=O)NC5CCN(CC(F)(F)F)C5)C4)nc32)cc2cccnc12 (mixture of isomers) | 25 to 200 nM |
| O=C(NC1CCCN(CCF)C1)[C@@H]1CC[C@@H](Nc2ncc3c(Br)nn(-c4cc(F)c5ncccc5c4)c3n2)C1 (mixture of isomers) | 25 to 200 nM |
| CNC(=O)C1(C)CC[C@@H](Nc2ncc3c(Br)nn(-c4cc(CO)cc(OC)c4)c3n2)C1 (mixture of isomers) | 25 to 200 nM |
| CNC(=O)C1(C)CC[C@@H](Nc2ncc3c(Br)nn(-c4ccc5cnccc5c4)c3n2)C1 (mixture of isomers) | 200 to 500 nM |
| Cn1ccnc1[C@@H]1CC[C@@H](Nc2ncc3c(Br)nn(-c4ccc5ncccc5c4)c3n2)C1 (relative stereo) [3-bromo-N-(trans-3-(1-methyl-1H-imidazol-2-yl)cyclopentyl)-1-(quinolin-6-yl)-1H-pyrazolo[3,4-d]pyrimidin-6-amine] | 25 to 200 nM |
